# Reference: patent US11524966B1 (Valo Early Discovery, Inc., priority 2017, dated 2022)
# Target: T1, USP25 (USP25-His6, Boston Biochem E-546) (Homo sapiens, UniProt Q9UHP3)
# T1 construct: His6; purchased Boston Biochem E-546
# T1 sequence (Q9UHP3 1-1055): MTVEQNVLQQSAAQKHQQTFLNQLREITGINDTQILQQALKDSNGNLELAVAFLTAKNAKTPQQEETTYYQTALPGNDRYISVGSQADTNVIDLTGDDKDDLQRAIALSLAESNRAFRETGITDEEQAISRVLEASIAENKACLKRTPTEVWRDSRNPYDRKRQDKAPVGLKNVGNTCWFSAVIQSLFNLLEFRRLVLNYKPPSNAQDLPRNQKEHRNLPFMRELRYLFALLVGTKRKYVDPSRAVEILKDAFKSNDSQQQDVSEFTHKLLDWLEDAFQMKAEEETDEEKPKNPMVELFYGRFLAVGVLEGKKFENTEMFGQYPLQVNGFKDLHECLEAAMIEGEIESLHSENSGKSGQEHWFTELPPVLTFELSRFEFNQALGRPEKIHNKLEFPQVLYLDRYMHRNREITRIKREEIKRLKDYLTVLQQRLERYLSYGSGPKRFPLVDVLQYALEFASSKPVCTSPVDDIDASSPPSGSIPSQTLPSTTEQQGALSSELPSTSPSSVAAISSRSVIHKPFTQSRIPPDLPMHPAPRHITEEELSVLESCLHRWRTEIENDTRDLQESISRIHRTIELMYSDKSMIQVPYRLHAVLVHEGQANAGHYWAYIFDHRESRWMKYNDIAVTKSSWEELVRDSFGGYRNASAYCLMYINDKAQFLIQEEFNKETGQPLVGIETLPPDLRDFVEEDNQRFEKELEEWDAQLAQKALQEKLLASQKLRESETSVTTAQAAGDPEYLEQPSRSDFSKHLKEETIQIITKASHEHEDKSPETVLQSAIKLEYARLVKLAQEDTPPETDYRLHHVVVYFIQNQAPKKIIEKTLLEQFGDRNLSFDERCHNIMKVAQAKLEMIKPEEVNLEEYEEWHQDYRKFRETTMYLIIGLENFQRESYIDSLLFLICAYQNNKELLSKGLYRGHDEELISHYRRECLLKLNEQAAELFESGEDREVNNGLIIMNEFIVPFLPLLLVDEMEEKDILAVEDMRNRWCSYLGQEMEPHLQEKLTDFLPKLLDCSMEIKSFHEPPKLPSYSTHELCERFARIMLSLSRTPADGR
# Experiment: Ubiquitin-Rhodamine 110 Assay for USP25 Activity, Example A-2
# Format: biochemical
# Conditions: Ub-Rh110 assay, Example A-2; read-out: USP25 A-2 IC50 range
# Description: The assay was performed in a final volume of 9 μL in assay buffer containing 20 mM Tris-HCl (pH 8.0, (1M Tris-HCl, pH 8.0 solution; Corning 46-031-CM)), 3 mM BME (2-Mercaptoethanol; Sigma 63689-25ML-F), 0.03% BGG (0.22 μM filtered, Sigma, G7516-25G), and 0.01% Triton X-100 (Sigma, T9284-10L). Nanoliter quantities of 10-point, 3-fold serial dilution in DMSO was pre-dispensed into 1536 assay plates (Corning, #3724BC) for a final test concentration of 25 μM to 1.3 nM, top to lowest dose, respectively. Enzyme USP25, construct USP25-His6, (Boston Biochem E-546). Concentration and incubation times were optimized for the maximal signal-to-background while maintaining initial velocity conditions at a fixed substrate concentration. The final concentration of the enzyme in the assay was 75 pM. Final substrate (Ub-Rh110; Ubiquitin-Rhodamine 110, R&D Systems #U-555) concentration was 25 nM with [Ub-Rh110]<<Km. 3 μL of 2× enzyme was added to assay plates (pre-stamped with compound) preincubated with […] for 30 minutes and then 3 μL of 2×Ub-Rh110 was added to assay plates. Plates were incubated for 45 minutes at room temperature before addition of 3 μL of stop solution (final concentration of 10 mM citric acid (Sigma, 251275-500G)). Fluorescence was read on the Envision (Excitation at 485 nm and Emission at 535 nm; Perkin Elmer) or on the PheraSTAR (Excitation at 485 nm and Emission at 535 nm; BMG Labtech).
# IC50 values were determined by curve fitting of the standard 4 parameter logistic fitting algorithm included in the Activity Base software package: IDBS XE Designer Model 205. Data is fitted using the Levenburg Marquardt algorithm.
row,SMILES,IC50 [nM]
1,"Cc1nc2sc(C(=O)N[C@H]3COc4cc(N5CCNCC5)ccc4C3)c(N)c2s1 [Example 1-25, (R)-6-amino-2-methyl-N-(7-(piperazin-1-yl)chroman-3-yl)thieno[2,3-d]thiazole-5-carboxamide]",200 to 2000
2,"Cc1nc2sc(C(=O)N[C@@H]3COc4cc(N5CCNCC5)ccc4C3)c(N)c2s1 [Example 1-26, (S)-6-amino-2-methyl-N-(7-(piperazin-1-yl)chroman-3-yl)thieno[2,3-d]thiazole-5-carboxamide]",> 2000
3,"Cc1ccc2c(N)c(C(=O)N[C@H]3COc4c(ccc(N5CCNCC5)c4F)C3)sc2n1 [Example 1-33, (R)-3-amino-N-(8-fluoro-7-(piperazin-1-yl)chroman-3-yl)-6-methylthieno[2,3-b]pyridine-2-carboxamide]",50 to 200
4,"Cc1ccc2c(N)c(C(=O)N[C@@H]3COc4c(ccc(N5CCNCC5)c4F)C3)sc2n1 [Example 1-34, (S)-3-amino-N-(8-fluoro-7-(piperazin-1-yl)chroman-3-yl)-6-methylthieno[2,3-b]pyridine-2-carboxamide]",> 2000
5,"Cc1ccc2c(N)c(C(=O)N[C@H]3COc4cc(N5CCNCC5)c(F)cc4C3)sc2n1 [Example 1-35, (R)-3-amino-N-(6-fluoro-7-(piperazin-1-yl)chroman-3-yl)-6-methylthieno[2,3-b]pyridine-2-carboxamide]",200 to 2000
6,"Cc1ccc2c(N)c(C(=O)N[C@@H]3COc4cc(N5CCNCC5)c(F)cc4C3)sc2n1 [Example 1-36, (S)-3-amino-N-(6-fluoro-7-(piperazin-1-yl)chroman-3-yl)-6-methylthieno[2,3-b]pyridine-2-carboxamide]",> 2000
7,"Cc1ccc2c(N)c(C(=O)N[C@H]3COc4cc(N5CC6CNCC(C5)C6(F)F)ccc4C3)sc2n1 [Example 2-1, 3-Amino-N-((3R)-7-(9,9-difluoro-3,7-diazabicyclo[3.3.1]nonan-3-yl)chroman-3-yl)-6-methylthieno[2,3-b]pyridine-2-carboxamide]",1 to 50
8,"Cc1ccc2c(N)c(C(=O)N[C@H]3COc4cc(N5CC6CC(C5)N6)ccc4C3)sc2n1 [Example 2-2, N-((3R)-7-(3,6-diazabicyclo[3.1.1]heptan-3-yl)chroman-3-yl)-3-amino-6-methylthieno[2,3-b]pyridine-2-carboxamide]",50 to 200
9,"Cc1ccc2c(N)c(C(=O)N[C@@H]3COc4cc(N5CC6CC(C5)N6)ccc4C3)sc2n1 [Example 2-3, N-((3S)-7-(3,6-diazabicyclo[3.1.1]heptan-3-yl)chroman-3-yl)-3-amino-6-methylthieno[2,3-b]pyridine-2-carboxamide]",> 2000
10,"Cc1ccc2c(N)c(C(=O)N[C@H]3COc4cc(N5CCNC[C@@H]5C)ccc4C3)sc2n1 [Example 2-4, 3-amino-6-methyl-N-((R)-7-((S)-2-methylpiperazin-1-yl)chroman-3-yl)thieno[2,3-b]pyridine-2-carboxamide]",1 to 50
11,"Cc1ccc2c(N)c(C(=O)N[C@H]3COc4cc(N5CCNC[C@H]5C)ccc4C3)sc2n1 [Example 2-5, 3-amino-6-methyl-N-((R)-7-((R)-2-methylpiperazin-1-yl)chroman-3-yl)thieno[2,3-b]pyridine-2-carboxamide]",1 to 50
12,"Cc1ccc2c(N)c(C(=O)N[C@H]3COc4cc(N5C6CCC5CNC6)ccc4C3)sc2n1 [Example 2-6, N-((3R)-7-(3,8-diazabicyclo[3.2.1]octan-8-yl)chroman-3-yl)-3-amino-6-methylthieno[2,3-b]pyridine-2-carboxamide]",50 to 200
13,"Cc1ccc2c(N)c(C(=O)N[C@H]3COc4cc(N5CCCC56CNC6)ccc4C3)sc2n1 [Example 2-7, (R)-N-(7-(2,5-diazaspiro[3.4]octan-5-yl)chroman-3-yl)-3-amino-6-methylthieno[2,3-b]pyridine-2-carboxamide]",200 to 2000
14,"Cc1ccc2c(N)c(C(=O)N[C@H]3COc4cc(N5CCN[C@@H](C)C5)ccc4C3)sc2n1 [Example 2-8, 3-amino-6-methyl-N-((R)-7-((S)-3-methylpiperazin-1-yl)chroman-3-yl)thieno[2,3-b]pyridine-2-carboxamide]",200 to 2000
15,"Cc1ccc2c(N)c(C(=O)N[C@H]3COc4cc(N5CCN[C@H](C)C5)ccc4C3)sc2n1 [Example 2-9, 3-amino-6-methyl-N-((R)-7-((R)-3-methylpiperazin-1-yl)chroman-3-yl)thieno[2,3-b]pyridine-2-carboxamide]",200 to 2000
16,Cc1ccc2c(N)c(C(=O)N[C@H]3COc4cc(N5CCNCC56COC6)ccc4C3)sc2n1 [Example 2-10],50 to 200
17,"Cc1cnc2c(N)c(C(=O)N[C@H]3COc4cc(N5CC6CC(C5)N6)ccc4C3)sc2n1 [Example 2-11, N-((3R)-7-(3,6-diazabicyclo[3.1.1]heptan-3-yl)chroman-3-yl)-7-amino-3-methylthieno[2,3-b]pyrazine-6-carboxamide]",50 to 200
18,"Cc1cnc2c(N)c(C(=O)N[C@H]3COc4cc(N5CC6COCC(C5)N6)ccc4C3)sc2n1 [Example 2-12, N-((3R)-7-(3-oxa-7,9-diazabicyclo[3.3.1]nonan-7-yl)chroman-3-yl)-7-amino-3-methylthieno[2,3-b]pyrazine-6-carboxamide]",200 to 2000
19,"Cc1cnc2c(N)c(C(=O)N[C@H]3COc4cc(N5CC6CNCC(C5)O6)ccc4C3)sc2n1 [Example 2-13, N-((3R)-7-(9-oxa-3,7-diazabicyclo[3.3.1]nonan-3-yl)chroman-3-yl)-7-amino-3-methylthieno[2,3-b]pyrazine-6-carboxamide]",200 to 2000
20,"Nc1c(C(=O)N[C@H]2COc3cc(N4CC5CC(C4)N5)ccc3C2)sc2nc(F)ccc12 [Example 2-14, N-((3R)-7-(3,6-diazabicyclo[3.1.1]heptan-3-yl)chroman-3-yl)-3-amino-6-fluorothieno[2,3-b]pyridine-2-carboxamide]",200 to 2000
21,"Cc1nc2sc(C(=O)N[C@H]3COc4cc(N5CC6CC(C5)N6)ccc4C3)c(N)c2cc1F [Example 2-15, N-((3R)-7-(3,6-diazabicyclo[3.1.1]heptan-3-yl)chroman-3-yl)-3-amino-5-fluoro-6-methylthieno[2,3-b]pyridine-2-carboxamide]",50 to 200
22,"COc1nc2sc(C(=O)N[C@H]3COc4cc(N5CCNCC5)ccc4C3)c(N)c2cc1F [Example 2-16, (R)-3-amino-5-fluoro-6-methoxy-N-(7-(piperazin-1-yl)chroman-3-yl)thieno[2,3-b]pyridine-2-carboxamide]",200 to 2000
23,"Cc1cc(C)c2c(N)c(C(=O)N[C@H]3COc4cc(N5CCNCC5)ccc4C3)sc2n1 [Example 2-17, (R)-3-amino-4,6-dimethyl-N-(7-(piperazin-1-yl)chroman-3-yl)thieno[2,3-b]pyridine-2-carboxamide]",50 to 200
24,"Cc1cc(C)c2c(N)c(C(=O)N[C@H]3COc4cc(N5CC6CC(C5)N6)ccc4C3)sc2n1 [Example 2-18, N-((3R)-7-(3,6-diazabicyclo[3.1.1]heptan-3-yl)chroman-3-yl)-3-amino-4,6-dimethylthieno[2,3-b]pyridine-2-carboxamide]",50 to 200
25,"Cc1cc(C)c2c(N)c(C(=O)N[C@H]3COc4cc(N5CC6CNCC(C5)C6(F)F)ccc4C3)sc2n1 [Example 2-19, 3-amino-N-((3R)-7-(9,9-difluoro-3,7-diazabicyclo[3.3.1]nonan-3-yl)chroman-3-yl)-4,6-dimethylthieno[2,3-b]pyridine-2-carboxamide]",1 to 50
